Experimental data: US20240228504A1, “SUBSTITUTED TRICYCLIC AMIDES, ANALOGUES THEREOF, AND METHODS USING SAME” (Arbutus Biopharma Corporation, priority 2020, published 2024)
Like-named read-outs stand apart in the source and are kept apart here.

Tested on: HBV rcDNA in HepDE19 cells
Assay: HepDE19 assay with bDNA quantitation of HBV rcDNA
Type: cell-based, hepatitis B virus
Settings: inhibition of rcDNA formation, bDNA quantitation, read-out: DE-19bDNA EC50
[1] = Hepatitis B virus, HepDE19, HepDE19 assay

Row | SMILES | EC50 (HepDE19 assay) [nM] | EC50 [1] [nM]
1 | CN(C(=O)c1ccc(-c2cccc(F)c2)cc1)C1CNCc2[nH]c(=O)c3cc(F)c(F)cc3c21 (single isomer, unassigned) [Compound 301, N-(8,9-Difluoro-6-oxo-1,2,3,4,5,6-hexahydrobenzo[c][1,7]naphthyridin-1-yl)-3′-fluoro-N-methyl-[1,1′-biphenyl]-4-carboxamide] | 24500 | –
2 | CN(C(=O)c1ccc(-c2cccc(F)c2)cc1)C1CNCc2[nH]c(=O)c3cc(F)c(F)cc3c21 (single isomer, unassigned) [Compound 302, N-(8,9-Difluoro-6-oxo-1,2,3,4,5,6-hexahydrobenzo[c][1,7]naphthyridin-1-yl)-3′-fluoro-N-methyl-[1,1′-biphenyl]-4-carboxamide] | 1060 | –
3 | CN(C(=O)c1cccc(-c2cccc(F)c2)c1)C1CNCc2[nH]c(=O)c3cc(F)c(F)cc3c21 (single isomer, unassigned) [Compound 304, N-(8,9-Difluoro-6-oxo-1,2,3,4,5,6-hexahydrobenzo[c][1,7]naphthyridin-1-yl)-3′-fluoro-N-methyl-[1,1′-biphenyl]-3-carboxamide] | – | 20000
4 | CNS(=O)(=O)c1cccc(C(=O)N(C)C2CNCc3[nH]c(=O)c4cc(F)c(F)cc4c32)c1 (single isomer, unassigned) [Compound 319, N-(8,9-Difluoro-6-oxo-1,2,3,4,5,6-hexahydrobenzo[c][1,7]naphthyridin-1-yl)-N-methyl-3-(N-methylsulfamoyl)benzamide] | – | 6800
5 | CNc1nc2c(c3cc(F)c(F)cc13)C(N(C)C(=O)c1cc3cc(F)c(F)cc3[nH]1)COC2 (single isomer, unassigned) [Compound 333, N-(8,9-Difluoro-6-(methylamino)-1,4-dihydro-2H-pyrano[3,4-c]isoquinolin-1-yl)-5,6-difluoro-N-methyl-1H-indole-2-carboxamide] | 530 | –
6 | CNc1nc2c(c3cc(F)c(F)cc13)C(N(C)C(=O)c1cc3cc(F)c(F)cc3[nH]1)COC2 (single isomer, unassigned) [Compound 334, N-(8,9-Difluoro-6-(methylamino)-1,4-dihydro-2H-pyrano[3,4-c]isoquinolin-1-yl)-5,6-difluoro-N-methyl-1H-indole-2-carboxamide] | 10 | –
7 | CN(C(=O)c1cc2cc(F)c(F)cc2[nH]1)C1COCc2nc(NCCO)c3cc(F)c(F)cc3c21 (single isomer, unassigned) [Compound 335, N-(8,9-Difluoro-6-((2-hydroxyethyl)amino)-1,4-dihydro-2H-pyrano[3,4-c]isoquinolin-1-yl)-5,6-difluoro-N-methyl-1H-indole-2-carboxamide] | 440 | –
8 | CN(C(=O)c1cc2cc(F)c(F)cc2[nH]1)C1COCc2nc(NCCO)c3cc(F)c(F)cc3c21 (single isomer, unassigned) [Compound 336, N-(8,9-Difluoro-6-((2-hydroxyethyl)amino)-1,4-dihydro-2H-pyrano[3,4-c]isoquinolin-1-yl)-5,6-difluoro-N-methyl-1H-indole-2-carboxamide] | 10 | –
9 | CN(C(=O)c1cccc(Oc2cccc(F)c2)c1)C1CNCc2[nH]c(=O)c3cc(F)c(F)cc3c21 (single isomer, unassigned) [Compound 339, N-(8,9-Difluoro-6-oxo-1,2,3,4,5,6-hexahydrobenzo[c][1,7]naphthyridin-1-yl)-3-(3-fluorophenoxy)-N-methylbenzamide] | – | 25000
10 | CN(C(=O)c1cc2cc(F)c(F)cc2[nH]1)C1COCc2nc(NCCN)c3cc(F)c(F)cc3c21 (single isomer, unassigned) [Compound 351, N-(6-((2-Aminoethyl)amino)-8,9-difluoro-1,4-dihydro-2H-pyrano[3,4-c]isoquinolin-1-yl)-5,6-difluoro-N-methyl-1H-indole-2-carboxamide] | 30 | –
11 | CN(C(=O)c1cc2cc(F)c(F)cc2[nH]1)C1COCc2nc(NCCN)c3cc(F)c(F)cc3c21 (single isomer, unassigned) [Compound 352, N-(6-((2-Aminoethyl)amino)-8,9-difluoro-1,4-dihydro-2H-pyrano[3,4-c]isoquinolin-1-yl)-5,6-difluoro-N-methyl-1H-indole-2-carboxamide] | 590 | –
12 | CC(O)c1cc(F)cc2[nH]c(C(=O)N(C)[C@@H]3COCc4[nH]c(=O)c5cc(F)c(F)cc5c43)cc12 (single isomer, unassigned) [Compound 353] | 60 | –
13 | CC(O)c1cc(F)cc2[nH]c(C(=O)N(C)[C@@H]3COCc4[nH]c(=O)c5cc(F)c(F)cc5c43)cc12 (single isomer, unassigned) [Compound 354] | 20 | –
14 | CN(C(=O)c1cnc(C(F)(F)F)c(Cl)c1)C1COCc2[nH]c(=O)c3cc(F)ccc3c21 (single isomer, unassigned) [Compound 378, 5-Chloro-N-(8-fluoro-6-oxo-1,4,5,6-tetrahydro-2H-pyrano[3,4-c]isoquinolin-1-yl)-N-methyl-6-(trifluoromethyl)nicotinamide] | – | 18300
15 | CN(C(=O)c1cnc(C(F)(F)F)c(Cl)c1)[C@@H]1COCc2[nH]c(=O)c3cc(F)ccc3c21 (single isomer, unassigned) [Compound 379, 5-Chloro-N-(8-fluoro-6-oxo-1,4,5,6-tetrahydro-2H-pyrano[3,4-c]isoquinolin-1-yl)-N-methyl-6-(trifluoromethyl)nicotinamide] | – | 170
16 | CN(C(=O)c1cc2sccc2[nH]1)C1COCc2[nH]c(=O)c3cc(F)ccc3c21 (single isomer, unassigned) [Compound 380, N-(8-Fluoro-6-oxo-1,4,5,6-tetrahydro-2H-pyrano[3,4-c]isoquinolin-1-yl)-N-methyl-4H-thieno[3,2-b]pyrrole-5-carboxamide] | 880 | –
17 | CN(C(=O)c1cc2sccc2[nH]1)C1COCc2[nH]c(=O)c3cc(F)ccc3c21 (single isomer, unassigned) [Compound 381, N-(8-Fluoro-6-oxo-1,4,5,6-tetrahydro-2H-pyrano[3,4-c]isoquinolin-1-yl)-N-methyl-4H-thieno[3,2-b]pyrrole-5-carboxamide] | 40 | –
18 | CN(C(=O)c1cc2c(C#N)cc(F)cc2[nH]1)C1COCc2[nH]c(=O)c3cc(F)ccc3c21 (single isomer, unassigned) [Compound 382, 4-Cyano-6-fluoro-N-(8-fluoro-6-oxo-1,4,5,6-tetrahydro-2H-pyrano[3,4-c]isoquinolin-1-yl)-N-methyl-1H-indole-2-carboxamide] | 980 | –
19 | CN(C(=O)c1cc2c(C#N)cc(F)cc2[nH]1)C1COCc2[nH]c(=O)c3cc(F)ccc3c21 (single isomer, unassigned) [Compound 383, 4-Cyano-6-fluoro-N-(8-fluoro-6-oxo-1,4,5,6-tetrahydro-2H-pyrano[3,4-c]isoquinolin-1-yl)-N-methyl-1H-indole-2-carboxamide] | 40 | –
20 | CN(C(=O)c1cc2cc(C(F)F)ccn2c1)C1CNCc2[nH]c(=O)c3cc(F)c(F)cc3c21 (single isomer, unassigned) [Compound 386, N-(8,9-Difluoro-6-oxo-1,2,3,4,5,6-hexahydrobenzo[c][1,7]naphthyridin-1-yl)-7-(difluoromethyl)-N-methylindolizine-2-carboxamide] | – | 1900
21 | CN(C(=O)c1cc2ccc(C(F)F)cn2c1)C1CNCc2[nH]c(=O)c3cc(F)c(F)cc3c21 (single isomer, unassigned) [Compound 387, N-(8,9-Difluoro-6-oxo-1,2,3,4,5,6-hexahydrobenzo[c][1,7]naphthyridin-1-yl)-6-(difluoromethyl)-N-methylindolizine-2-carboxamide] | 11000 | –
22 | CN(C(=O)c1cc2ccc(C(F)F)cn2c1)C1CNCc2[nH]c(=O)c3cc(F)c(F)cc3c21 (single isomer, unassigned) [Compound 388, N-(8,9-Difluoro-6-oxo-1,2,3,4,5,6-hexahydrobenzo[c][1,7]naphthyridin-1-yl)-6-(difluoromethyl)-N-methylindolizine-2-carboxamide] | 110 | –
23 | CN(C(=O)c1ccc2cccn2c1)C1COCc2[nH]c(=O)c3cc(F)ccc3c21 (single isomer, unassigned) [Compound 389, N-(8-Fluoro-6-oxo-1,4,5,6-tetrahydro-2H-pyrano[3,4-c]isoquinolin-1-yl)-N-methylindolizine-6-carboxamide] | 17000 | –
24 | CN(C(=O)c1ccc2cccn2c1)C1COCc2[nH]c(=O)c3cc(F)ccc3c21 (single isomer, unassigned) [Compound 390, N-(8-Fluoro-6-oxo-1,4,5,6-tetrahydro-2H-pyrano[3,4-c]isoquinolin-1-yl)-N-methylindolizine-6-carboxamide] | 70 | –
25 | CN(C(=O)c1ccc2cccn2c1)C1CNCc2[nH]c(=O)c3cc(F)c(F)cc3c21 (single isomer, unassigned) [Compound 391, N-(8,9-difluoro-6-oxo-1,2,3,4,5,6-hexahydrobenzo[c][1,7]naphthyridin-1-yl)-N-methylindolizine-6-carboxamide] | 22000 | –
26 | CN(C(=O)c1ccc2cccn2c1)C1CNCc2[nH]c(=O)c3cc(F)c(F)cc3c21 (single isomer, unassigned) [Compound 392, N-(8,9-difluoro-6-oxo-1,2,3,4,5,6-hexahydrobenzo[c][1,7]naphthyridin-1-yl)-N-methylindolizine-6-carboxamide] | 90 | –
27 | CCc1cc(F)cc2[nH]c(C(=O)N(C)C3COCc4[nH]c(=O)c5cc(F)ccc5c43)cc12 (single isomer, unassigned) [Compound 393, 4-Ethyl-6-fluoro-N-(8-fluoro-6-oxo-1,4,5,6-tetrahydro-2H-pyrano[3,4-c]isoquinolin-1-yl)-N-methyl-1H-indole-2-carboxamide] | 1200 | –
28 | CCc1cc(F)cc2[nH]c(C(=O)N(C)C3COCc4[nH]c(=O)c5cc(F)ccc5c43)cc12 (single isomer, unassigned) [Compound 394, 4-Ethyl-6-fluoro-N-(8-fluoro-6-oxo-1,4,5,6-tetrahydro-2H-pyrano[3,4-c]isoquinolin-1-yl)-N-methyl-1H-indole-2-carboxamide] | 460 | –
